Measured values published in PMC12396409, “Screening and hit evaluation of a microbial metabolite library against the pathogenic Plasmodium falciparum and Toxoplasma gondii parasites” (International Journal for Parasitology: Drugs and Drug …, 2025).
Where two headings read alike, the source gives them in different places. *1 amine or outer side, *2 acyl side, *3 side chain or, on linkers, in order; H or OH if unused. Where a SMILES comes first, the peptide text is derived from it. Bridges are numbered along the chain shown (N, C = ends). [ ]: non-standard residue; d: D form. The star is where a group is joined. pTerphenylCO(4''-OnC5H11) = CCCCCOc1ccc(-c2ccc(-c3ccc(C(=O)*)cc3)cc2)cc1; Orn(4R-OH,5R-OH) = O=C([C@H](C[C@@H](O)[C@@H](O)N[*:3])N[*:1])[*:2]; hTyr(3S-OH,4S-OH) = N[C@H](C(=O)O)[C@H](O)[C@@H](O)c1ccc(O)cc1; Pro(3S-OH,4S-Me) = C[C@H]1CN[C@H](C(=O)O)[C@H]1O; Hyp = O=C(O)[C@@H]1C[C@@H](O)CN1

Assays:
[1] = system: P. falciparum 3D7 parasites; assay: P. falciparum growth inhibition assay, 1-cycle (72 h treatment), SYBR DNA staining (library screen at 2 μg/mL and dose-response); assay type: cell-based, Plasmodium falciparum
[2] = system: P. falciparum 3D7 parasites; assay: P. falciparum growth inhibition assay, 2-cycle (120 h treatment), delayed-death screen and dose-response; assay type: cell-based, Plasmodium falciparum
[3] = system: T. gondii RH strain (RH-Tub-eYFP) tachyzoites; assay: microbe, parasite or virus in culture; assay type: cell-based, Toxoplasma gondii
[4] = library screen at 2 μg/mL, 72 h, % growth, replicate 1
[5] = library screen at 2 μg/mL, 72 h, % growth, replicate 2
[6] = library screen at 2 μg/mL, 120 h, % growth, replicate 1
[7] = library screen at 2 μg/mL, 120 h, % growth, replicate 2
[8] = Plasmodium falciparum, 3D7, library screen at 2 μg/mL, 72 h, % growth, replicate 1, read-out: Pf_72h_%Growth_Rep1
[9] = Plasmodium falciparum, 3D7, library screen at 2 μg/mL, 72 h, % growth, replicate 2, read-out: Pf_72h_%Growth_Rep2
[10] = Plasmodium falciparum, 3D7, library screen at 2 μg/mL, 120 h, % growth, replicate 1, read-out: Pf_120h_%Growth_Rep1
[11] = Plasmodium falciparum, 3D7, library screen at 2 μg/mL, 120 h, % growth, replicate 2, read-out: Pf_120h_%Growth_Rep2
[12] = Toxoplasma gondii, 72 h, library screen at 2 μg/mL, 72 h, % growth, replicate 1; read-out: Tg_72h_%Growth_Rep1
[13] = Toxoplasma gondii, 72 h, library screen at 2 μg/mL, 72 h, % growth, replicate 2; read-out: Tg_72h_%Growth_Rep2

CO/C1=C\C(C)=C\[C@@H](C)[C@@H](O)[C@@H](C)C/C(C)=C/C=C/[C@H](OC)[C@@H]([C@@H](C)[C@@H](O)[C@H](C)[C@@]2(O)C[C@@H](OC(=O)/C=C/C(=O)NC3=C(O)CCC3=O)[C@H](C)[C@@H](C(C)C)O2)OC1=O [Bafilomycin B1]
Pf_72h_%Growth_Rep1 [1, 4]: 2.46%
Pf_72h_%Growth_Rep2 [1, 5]: 1.87%
Pf_120h_%Growth_Rep1 [2, 6]: 5.87%
Pf_120h_%Growth_Rep2 [2, 7]: 11.47%
Tg_72h_%Growth_Rep1 [3, 4]: -0.95%
Tg_72h_%Growth_Rep2 [3, 5]: 0.68%

Viridicatumtoxin
Pf_72h_%Growth_Rep1 ([1]; P. falciparum, 72 h, screen at 2 μg/mL, replicate 1): 2.34%
Pf_72h_%Growth_Rep2 ([1]; P. falciparum, 72 h, screen at 2 μg/mL, replicate 2): 2.82%
Pf_120h_%Growth_Rep1 ([2]; P. falciparum, 120 h, screen at 2 μg/mL, replicate 1): 6.51%
Pf_120h_%Growth_Rep2 ([2]; P. falciparum, 120 h, screen at 2 μg/mL, replicate 2): 13.13%
Tg_72h_%Growth_Rep1 ([3]; T. gondii, 72 h, screen at 2 μg/mL, replicate 1): 122.40%
Tg_72h_%Growth_Rep2 ([3]; T. gondii, 72 h, screen at 2 μg/mL, replicate 2): 65.71%

CC[C@]1(C)C[C@@H](OC(=O)CSc2nnc(N)[nH]2)[C@]2(C)[C@H](C)CC[C@]3(CCC(=O)[C@H]32)[C@@H](C)[C@@H]1O [Azamulin]
activity at 2 µg/mL ([1]; Plasmodium falciparum, 3D7; P. falciparum, 2 μg/mL, 72 h; read-out: 1) Growth (%) at 72 h): 61.2%
activity at 2 µg/mL [1, 8]: 59.3%
activity at 2 µg/mL [1, 9]: 63.1%
delayed-death activity in the 120 h screen against P. falciparum ([2]; 2 μg/mL, criteria: ≥40 % growth at 72 h, ≤20 % growth at 120 h, at least 5-fold): delayed-death activity
3) Fold change (72 h/120 h) ([2]; P. falciparum, growth at 72 h / growth at 120 h, 2 μg/mL): 6.9
activity at 2 µg/mL ([2]; Plasmodium falciparum, 3D7; P. falciparum, 2 μg/mL, 120 h; read-out: 2) Growth (%) at 120 h): 8.89%
activity at 2 µg/mL [2, 10]: 15.6%
activity at 2 µg/mL [2, 11]: 2.17%
percent parasite growth at 2 µg/mL [3, 12]: 65.2%
percent parasite growth at 2 µg/mL [3, 13]: 70.7%
Screen (T. gondii) ([3]; library screen at 2 μg/mL, RH strain, 72 h): I

CCCCCOc1ccc(-c2ccc(-c3ccc(C(=O)N[C@H]4C[C@@H](O)[C@@H](O)NC(=O)[C@@H]5[C@@H](O)[C@@H](C)CN5C(=O)[C@H]([C@@H](C)O)NC(=O)[C@H]([C@H](O)[C@@H](O)c5ccc(O)cc5)NC(=O)[C@@H]5C[C@@H](O)CN5C(=O)[C@H]([C@@H](C)O)NC4=O)cc3)cc2)cc1 [Anidulafungin] ({pTerphenylCO(4''-OnC5H11)}-[Orn(4R-OH,5R-OH)]T[Hyp][hTyr(3S-OH,4S-OH)]T[Pro(3S-OH,4S-Me)]; lactam 1-C)
activity at 2 µg/mL [1, 8]: 93.1%
activity at 2 µg/mL [1, 9]: 85.8%
activity at 2 µg/mL [2, 10]: 162%
activity at 2 µg/mL [2, 11]: 103%
percent parasite growth at 2 µg/mL ([3]; Toxoplasma gondii; library screen at 2 μg/mL, 72 h, % growth, replicate 1; read-out: Tg_72h_%Growth_Rep1): 88.8%
percent parasite growth at 2 µg/mL ([3]; Toxoplasma gondii; library screen at 2 μg/mL, 72 h, % growth, replicate 2; read-out: Tg_72h_%Growth_Rep2): 95.8%

C[C@@]12CCC[C@@]34CCC[C@@H](C=C[C@H]1CC3)N42 [Porantherine]
Pf_72h_%Growth_Rep1 ([1]; P. falciparum, 72 h, parasite screen 2 μg/mL, % growth, replicate 1): 85.43%
Pf_72h_%Growth_Rep2 ([1]; P. falciparum, 72 h, parasite screen 2 μg/mL, % growth, replicate 2): 115.67%
Pf_120h_%Growth_Rep1 ([2]; P. falciparum, 120 h, parasite screen 2 μg/mL, % growth, replicate 1): 101.33%
Pf_120h_%Growth_Rep2 ([2]; P. falciparum, 120 h, parasite screen 2 μg/mL, % growth, replicate 2): 98.35%
Tg_72h_%Growth_Rep1 ([3]; T. gondii, 72 h, parasite screen 2 μg/mL, % growth, replicate 1): 90.85%
Tg_72h_%Growth_Rep2 ([3]; T. gondii, 72 h, parasite screen 2 μg/mL, % growth, replicate 2): 74.43%

CC(=O)O[C@H]1C[C@@]2(C)[C@@H](C[C@@H](O)[C@H]3[C@@]4(C)CC[C@@H](O)[C@@H](C)[C@@H]4CC[C@@]32C)/C1=C(\CCC=C(C)C)C(=O)O [Fusidate sodium]
activity at 2 µg/mL ([1]; Plasmodium falciparum, 3D7, 72 h, library screen at 2 μg/mL, 72 h, % growth, replicate 1, read-out: Pf_72h_%Growth_Rep1): 87.5%
activity at 2 µg/mL ([1]; Plasmodium falciparum, 3D7, 72 h, library screen at 2 μg/mL, 72 h, % growth, replicate 2, read-out: Pf_72h_%Growth_Rep2): 96%
activity at 2 µg/mL ([2]; Plasmodium falciparum, 3D7, 120 h, library screen at 2 μg/mL, 120 h, % growth, replicate 1, read-out: Pf_120h_%Growth_Rep1): 91.2%
activity at 2 µg/mL ([2]; Plasmodium falciparum, 3D7, 120 h, library screen at 2 μg/mL, 120 h, % growth, replicate 2, read-out: Pf_120h_%Growth_Rep2): 139%
percent parasite growth at 2 µg/mL [3, 12]: 111%
percent parasite growth at 2 µg/mL [3, 13]: 91.8%

COCCC[C@H]1O[C@@](O)([C@H](C)C2CC(OC)C(O)/C=C(C)/C=C(C)/C=C(/C)C(O[C@H]3O[C@H](C)[C@@H](OC)[C@H](O)[C@H]3O)C(C)/C=C(CO)/C=C(OC)\C=C(/C)C(=O)O2)[C@H](OC)[C@@H](O)[C@]1(C)O[C@H]1C[C@H](O)[C@H](O[C@H]2C[C@@](C)(O)[C@H](O)[C@@H](C)O2)[C@@H](C)O1 (some centres unmarked) [Amycolatopsin A]
Pf_72h_%Growth_Rep1 [1, 4]: 76.67%
Pf_72h_%Growth_Rep2 [1, 5]: 110.14%
Pf_120h_%Growth_Rep1 [2, 6]: 67.28%
Pf_120h_%Growth_Rep2 [2, 7]: 94.98%
Tg_72h_%Growth_Rep1 [3, 4]: 96.54%
Tg_72h_%Growth_Rep2 [3, 5]: 72.55%
